From ChEMBL document CHEMBL1201862, “PubChem BioAssay data set” (2004)
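Following 48 hours of exposure in 96-well plates, responses at five concentrations were used to interpolate endpoints linearly. GI50 is the concentration that inhibits growth by half.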 The source made the active and inactive calls. Cut-off read from the data, not from the text of the source: active = GI50 up to about 1.1 µM and inactive = higher.

Assays:
Assay in all cases: NCI tumour cell line growth inhibition, 48 h
HCT-116 = system: HCT-116
M14 = system: M14
BT-549 = system: BT-549
OVCAR-5 = system: OVCAR-5
NCI-H460 = system: NCI-H460
Malme-3M = system: Malme-3M
SW-620 = system: SW-620
HOP-62 = system: HOP-62
HCT-15 = system: HCT-15
MOLT-4 = system: MOLT-4
A549 = system: A549
IGROV-1 = system: IGROV-1
ACHN = system: ACHN
SF-539 = system: SF-539
SK-MEL-5 = system: SK-MEL-5
NCI-H23 = system: NCI-H23
KM12 = system: KM12
CCRF-CEM = system: CCRF-CEM
UACC-62 = system: UACC-62
A498 = system: A498

Row | Compound | GI50 (HCT-116) | GI50 (M14) | GI50 (BT-549) | GI50 (OVCAR-5) | GI50 (NCI-H460) | GI50 (Malme-3M) | GI50 (SW-620) | GI50 (HOP-62) | GI50 (HCT-15) | GI50 (MOLT-4) | GI50 (A549) | GI50 (IGROV-1) | GI50 (ACHN) | GI50 (SF-539) | GI50 (SK-MEL-5) | GI50 (NCI-H23) | GI50 (KM12) | GI50 (CCRF-CEM) | GI50 (UACC-62) | GI50 (A498)
1 | COc1ccc2o/c(=N/c3ccccc3)c(C(N)=O)cc2c1 | > 69.8 µM (inactive) | > 100 µM (inactive) | 91 µM (inactive) | > 100 µM (inactive) | > 100 µM (inactive) | > 100 µM (inactive) | > 100 µM (inactive) | 32.2 µM (inactive) | > 100 µM | > 100 µM (inactive) | > 55.3 µM (inactive) | > 70.6 µM (inactive) | 19 µM (inactive) | > 75.3 µM (inactive) | > 100 µM (inactive) | > 58.1 µM (inactive) | > 100 µM (inactive) | > 100 µM (inactive) | – | –
2 | CC(C(O)Cc1ccccc1)N(C)/N=N/c1ccc([N+](=O)[O-])cc1 (centres undefined) | 16.4 µM (inactive) | 16.8 µM (inactive) | 19.6 µM (inactive) | 25.5 µM (inactive) | 15.2 µM (inactive) | 22.2 µM (inactive) | 23.9 µM (inactive) | 16.7 µM (inactive) | 22.8 µM | 18.2 µM (inactive) | 23.1 µM (inactive) | 19.4 µM (inactive) | 25.6 µM (inactive) | – | 18.6 µM (inactive) | 20.1 µM (inactive) | 21.7 µM (inactive) | 29.6 µM (inactive) | 18.8 µM (inactive) | –
3 | CCC1(O)C(=O)OCc2c1cc1n(c2=O)Cc2c-1nc1ccccc1c2OC (centres undefined) | 0.0453 µM (active) | < 0.0176 µM (active) | – | 0.0711 µM (active) | < 0.01 µM (active) | 0.15 µM (active) | < 0.01 µM (active) | < 0.01 µM (active) | 0.117 µM | < 0.01 µM (active) | < 0.0127 µM (active) | 0.174 µM (active) | < 0.01 µM (active) | < 0.01 µM (active) | 0.0184 µM (active) | < 0.0121 µM (active) | 0.167 µM (active) | < 0.01 µM (active) | < 0.01 µM (active) | 0.0513 µM (active)
4 | COc1ccc2c(c1)Oc1cc(O)ccc1[C@@H]2c1ccccc1C(=O)NC(C)c1ccccc1 (some centres undefined) | 12.2 µM (inactive) | 12.2 µM (inactive) | – | 16.4 µM (inactive) | 12.2 µM (inactive) | 15 µM (inactive) | 19 µM (inactive) | 15.3 µM (inactive) | 13.7 µM | 5.73 µM (inactive) | 17.7 µM (inactive) | 18.2 µM (inactive) | 15.6 µM (inactive) | 16.3 µM (inactive) | 17.7 µM (inactive) | 16.1 µM (inactive) | 13.4 µM (inactive) | 15.8 µM (inactive) | 13.6 µM (inactive) | 17.7 µM (inactive)
5 | Cc1ccc(NC(=O)CC/C(CC(=O)C(C)(C)C)=N\NC(=O)C[n+]2ccccc2)cc1C | 74.5 µM (inactive) | > 100 µM (inactive) | – | > 100 µM (inactive) | 51.9 µM (inactive) | > 100 µM (inactive) | > 100 µM (inactive) | > 100 µM (inactive) | 53 µM | 51.2 µM (inactive) | > 100 µM (inactive) | > 100 µM (inactive) | > 100 µM (inactive) | > 100 µM (inactive) | > 100 µM (inactive) | > 100 µM (inactive) | > 100 µM (inactive) | 45.3 µM (inactive) | > 100 µM (inactive) | > 100 µM (inactive)
6 | COP(=O)(OC)C(NC(=O)C(F)(F)F)(c1ccccc1)C(F)(F)F (centres undefined) | > 100 µM (inactive) | > 100 µM (inactive) | – | > 100 µM (inactive) | > 100 µM (inactive) | > 100 µM (inactive) | > 100 µM (inactive) | > 100 µM (inactive) | > 100 µM | > 100 µM (inactive) | > 100 µM (inactive) | > 100 µM (inactive) | > 100 µM (inactive) | > 100 µM (inactive) | > 100 µM (inactive) | > 100 µM (inactive) | > 100 µM (inactive) | > 100 µM (inactive) | > 100 µM (inactive) | > 100 µM (inactive)
7 | CNC(=O)O/N=C1\N(C)CN(c2ccccc2)C12CCN(CCCC(=O)c1ccc(F)cc1)CC2 | 33 µM (inactive) | 16.9 µM (inactive) | – | 58.2 µM (inactive) | 44.1 µM (inactive) | 32.7 µM (inactive) | > 100 µM (inactive) | 39.4 µM (inactive) | > 100 µM | 69 µM (inactive) | 81.3 µM (inactive) | 46.8 µM (inactive) | 83.8 µM (inactive) | 50.6 µM (inactive) | 18.5 µM (inactive) | > 100 µM (inactive) | 27.7 µM (inactive) | 99.3 µM (inactive) | > 100 µM (inactive) | 40 µM (inactive)
8 | O=P1(c2ccccc2)c2ccccc2-c2ccccc21 | 99.3 µM (inactive) | > 10 µM (inactive) | 65.2 µM (inactive) | – | – | – | > 100 µM (inactive) | > 100 µM (inactive) | > 100 µM | 47.5 µM (inactive) | > 100 µM (inactive) | > 100 µM (inactive) | – | > 100 µM (inactive) | 44.4 µM (inactive) | > 100 µM (inactive) | > 100 µM (inactive) | 55.5 µM (inactive) | 82.2 µM (inactive) | –
9 | COC(=O)C1=C(C[S+]([O-])c2ccc([N+](=O)[O-])cc2[N+](=O)[O-])C2C=CC1C2 (centres undefined) | 21.8 µM (inactive) | 42.6 µM (inactive) | – | > 100 µM (inactive) | 35.9 µM (inactive) | 21.4 µM (inactive) | 14.4 µM (inactive) | > 100 µM (inactive) | 15.7 µM | 22.2 µM (inactive) | 57 µM (inactive) | 64.9 µM (inactive) | 19.8 µM (inactive) | 24.3 µM (inactive) | 63.2 µM (inactive) | 26.4 µM (inactive) | 40.3 µM (inactive) | 11.8 µM (inactive) | 18 µM (inactive) | > 100 µM (inactive)
10 | CCC/C(Cl)=N/OC(NC(=O)OCC)(C(F)(F)F)C(F)(F)F | 19.4 µM (inactive) | 17.9 µM (inactive) | – | 16.4 µM (inactive) | > 100 µM (inactive) | 15.4 µM (inactive) | 19.8 µM (inactive) | > 100 µM (inactive) | 21.6 µM | 32.5 µM (inactive) | > 100 µM (inactive) | 16.6 µM (inactive) | 18.3 µM (inactive) | 16.7 µM (inactive) | 23.8 µM (inactive) | 25.1 µM (inactive) | > 100 µM (inactive) | 22.1 µM (inactive) | 48.1 µM (inactive) | > 100 µM (inactive)
11 | CC(=O)NC1=C(Nc2ccc(C)cc2)C(=O)c2ccccc2C1=O | 19.9 µM (inactive) | 13.5 µM (inactive) | – | 13.3 µM (inactive) | 12.1 µM (inactive) | 11.5 µM (inactive) | 13.5 µM (inactive) | 17.1 µM (inactive) | 14.5 µM | 16.7 µM (inactive) | 14.3 µM (inactive) | 17.7 µM (inactive) | 17.9 µM (inactive) | 16.2 µM (inactive) | 10.2 µM (inactive) | 8.02 µM (inactive) | 24.7 µM (inactive) | 17.1 µM (inactive) | 10.9 µM (inactive) | 50.2 µM (inactive)
12 | Cc1ccc(C(=O)CC(O)(C(F)(F)F)C(F)(F)F)cc1[N+](=O)[O-] | 5.3 µM (inactive) | 6.59 µM (inactive) | – | 18 µM (inactive) | 5.78 µM (inactive) | 16.3 µM (inactive) | 16.8 µM (inactive) | 15.2 µM (inactive) | 3.92 µM | 16.7 µM (inactive) | 11.1 µM (inactive) | 5.05 µM (inactive) | 15.5 µM (inactive) | 17 µM (inactive) | 16.4 µM (inactive) | 9.29 µM (inactive) | 2.19 µM (inactive) | 4.63 µM (inactive) | 8.55 µM (inactive) | 21.3 µM (inactive)
13 | COC1O[C@@H]2COC(C)(C)O[C@@H]2C(=O)N1Nc1ccc([N+](=O)[O-])cc1 (some centres undefined) | > 100 µM (inactive) | > 100 µM (inactive) | – | > 100 µM (inactive) | > 100 µM (inactive) | > 100 µM (inactive) | 25.1 µM (inactive) | > 100 µM (inactive) | > 100 µM | > 100 µM (inactive) | > 100 µM (inactive) | > 100 µM (inactive) | > 100 µM (inactive) | > 100 µM (inactive) | > 100 µM (inactive) | > 100 µM (inactive) | > 100 µM (inactive) | > 10 µM (inactive) | > 100 µM (inactive) | > 100 µM (inactive)
14 | O=[N+]([O-])c1ccc(-c2nnc(C34CC5CC(CC(C5)C3)C4)o2)cc1 | > 100 µM (inactive) | > 100 µM (inactive) | – | > 100 µM (inactive) | > 100 µM (inactive) | > 100 µM (inactive) | > 100 µM (inactive) | > 100 µM (inactive) | > 100 µM | > 100 µM (inactive) | > 100 µM (inactive) | > 100 µM (inactive) | > 100 µM (inactive) | > 100 µM (inactive) | > 100 µM (inactive) | > 100 µM (inactive) | > 100 µM (inactive) | > 100 µM (inactive) | > 100 µM (inactive) | > 100 µM (inactive)
15 | CC(C)(O)C(O)COc1c2c(cc3oc(=O)ccc13)OCO2 (centres undefined) | > 100 µM (inactive) | > 100 µM (inactive) | – | > 100 µM (inactive) | > 100 µM (inactive) | > 100 µM (inactive) | > 100 µM (inactive) | > 100 µM (inactive) | > 100 µM | > 100 µM (inactive) | > 100 µM (inactive) | > 100 µM (inactive) | > 100 µM (inactive) | > 100 µM (inactive) | > 100 µM (inactive) | > 100 µM (inactive) | > 100 µM (inactive) | > 100 µM (inactive) | > 100 µM (inactive) | > 100 µM (inactive)
